Each structure is given as a SMILES string. ≈ marks a conversion by molar mass, not a printed value.

Holding throughout (assay): squalene rescue assay
Common to all, as to format: cell-based

One test deals with C. albicans SC5314. The settings on record: Candida albicans, SC5314, read-out: EC50 (squalene concentration rescuing 50% of growth). On the procedure:
(§1) Squalene rescue assays were performed as described previously ([7]). […] After incubation at 35°C for 24 h (C. albicans), 48 h (A. fumigatus), or 72 h (C. neoformans), OD600 was measured in a BioTek ELx800 plate reader.

A further test relates to C. neoformans H99. The settings on record: Cryptococcus neoformans, H99, read-out: EC50 (squalene concentration rescuing 50% of growth). How it is done: as §1
A further test concerns A. fumigatus ATCC 204305. The settings on record: Aspergillus fumigatus, ATCC204305, read-out: EC50 (squalene concentration rescuing 50% of growth). How it is done: as §1

Turning to `CC(C)=CCC/C(C)=C/CC/C(C)=C/CC/C=C(\C)CC/C=C(\C)CCC=C(C)C` [squalene], the results for the EC50 in the test with C. albicans SC5314, with C. neoformans H99 and in the test on A. fumigatus ATCC 204305 were 12.4 µg/mL (≈ 30.3 µM), 2.98 µg/mL (≈ 7.25 µM) and 23.3 µg/mL (≈ 56.7 µM), respectively.

Values taken from publication PMC12892976, “Alkylation-based optimization of antifungal FPPS inhibitors yields a potent, broad-spectrum lipophilic zoledronate derivative” (mBio, 2025).
